According to patent publication US20090076047A1, “2-Substituted Hydroxylaminopyrimidine, Method for the Production and the Use Thereof in the Form of Pesticides” (priority 2005, published 2009):

Legend:
[1] = test system: Septoria tritici; experiment: Microtest No. 1: activity against the Septoria leaf spot pathogen Septoria tritici in the microtiter test; type: cell-based; settings: 125 ppm, day 7 after inoculation, absorption at 405 nm; active compound-free control = 100%
Method: Microtest No. 1—Activity Against the Septoria Leaf Spot Pathogen Septoria tritici in the Microtiter Test The stock solution was pipetted into a microtiter plate (MTP) and diluted with an aqueous malt-based fungus nutrient medium to the stated active compound concentration. An aqueous spore suspension of Septoria tritici was then added. The plates were placed in a water vapor-saturated chamber at temperatures of 18° C. On day 7 after the inoculation, the MTPs were measured in an absorption photometer at 405 nm. The measured parameters were compared to the growth of the active compound-free control variant (100%) and the fungus- and active compound-free blank value to determine the relative growth in % of the pathogens in the individual active compounds.

[2] = test system: Pyricularia oryzae; type: cell-based; settings: 125 ppm, day 7 after inoculation, absorption at 405 nm; active compound-free control = 100%
[3] = test system: Puccinia recondita; experiment: Curative activity against brown rust of wheat caused by Puccinia recondita (greenhouse); type: in vivo; settings: 63 ppm, wheat sprayed 1 day after inoculation (curative), 7 days; untreated control 90% infected
Method: The solution was then made up to 100 ml with water. This stock solution was diluted to the active compound concentration stated below using the solvent/emulsifier/water mixture described. Curative Activity Against Brown Rust of Wheat Caused by Puccinia recondita Leaves of potted wheat seedlings of the cultivar “Kanzler” were inoculated with a spore suspension of brown rust (Puccinia recondita). The pots were then placed into a chamber with high atmospheric humidity (90-95%) at 20-22° C. for 24 hours. During this time, the spores germinated and the germ tubes penetrated into the leaf tissue. The next day, the infected plants were sprayed to runoff point with the active compound solution described above having the concentration of active compound stated below. After the spray coating had dried on, the test plants were cultivated in a greenhouse at temperatures between 20 and 22° C. and at 65 to 70% relative atmospheric humidity for 7 days. The extent of the rust fungus development on the leaves was then determined.

[4] = test system: Erysiphe [syn. Blumeria] graminis forma specialis. tritici; experiment: Activity against mildew of wheat caused by Erysiphe [syn. Blumeria] graminis forma specialis tritici (greenhouse); type: in vivo, Erysiphe graminis f. sp. tritici; settings: 250 ppm, wheat seedlings, protective, assessed after 7 days, % of total leaf area; control 90% infected

CONC(=N)c1nc(Cl)c(-c2c(F)cc(F)cc2F)c(N2CCCO2)n1 [Compound 17, N-Methoxy-4-chloro-6-(isoxazolidin-2-yl)-5-(2,4,6-trifluorophenyl)-2-pyrimidinecarboximidamide]
melting point: 192 to 193 °C

CC1CCCN(c2nc(-n3cncn3)nc(Cl)c2-c2c(F)cc(F)cc2F)O1 (centres unmarked) [Compound 21, 4-Chloro-6-(6-methyltetrahydro-2H-(1,2)-oxazin-2-yl)-2-(1,2,4-triazol-1-yl)-5-(2,4,6-trifluorophenyl)pyrimidine]
melting point: 141 to 143 °C

CON(c1nc(C#N)nc(Cl)c1-c1c(F)cccc1Cl)C(C)C [Compound 32]
relative growth [1]: 0%
relative growth [2]: 0%

CON=C(N)c1nc(Cl)c(-c2c(F)cccc2Cl)c(N(CC2CC2)OC)n1 [Compound 33]
infection [3]: 0%

CON(CC1CC1)c1nc(C#N)nc(Cl)c1-c1c(F)cccc1F [Compound 35]
infection [4]: 5%

COc1nc(Cl)c(-c2c(F)cc(F)cc2F)c(N(CC2CC2)OC)n1 [Compound 40]
relative growth [1]: 0%
relative growth [2]: 0%
